In patent US20110039898A1, “METHOD FOR SCAVENGING FREE RADICALS AND INHIBITING TYROSINASE AND MELANIN” (priority 2009, published 2011):

Key:
[1] = system: melanin of B16-F10 cells; assay: Melanin content assay in situ; assay type: cell-based; conditions: for inhibition of melanin of B16-F10 cells: three days, nicotinyl hydroxamic acid 10, 20, 40, 60 μM
Description: Melanin Content Assay In Situ
B16-F10 cells (1×10^5) were placed on a 60 mm culture dish. The nicotinyl hydroxamic acid and the N-methyl nicotinic acid hydroxamate iodide with various concentrations were respectively added and cultivated for three days in a culture box. After removal of the upper clean solution, the cells were washed two times using a PBS. The melanin was dissolved by 1N NaOH (90° C., 30 minutes). The melanin content was then measured (405 nm).

[2] = system: human melanocytes; assay: Cell viability assay (MTT), human melanocytes; assay type: cell-based; conditions: 24 hours
Description: (§1) The culture medium was removed from the culture dish filled with cells. The cells were washed using 10 ml of a PBS. The number of the cells was counted by a blood cell counter and diluted to a proper cell concentration. 500 µl/well of the result was added to a 24-well culture plate and cultivated in a 37° C. culture box with 5% CO2 and mist until the cells were stuck on the bottom of the culture dish. After removal of the used culture medium, a fresh drug-containing culture medium with various concentrations was added (the drug was directly added when cells were suspended) and cultivated for 24 hours in a 37° C. culture box with 5% CO2 and mist. After removal of the upper clean solution, the cells were washed two times using a PBS. An MTT solution (500 μg/ml) prepared from the medium was then added to the well and reacted for 4-6 hours in a 37° C. culture box. After removal of the upper clean solution, 100 μl of a DMSO was added until a formazan crystal was dissolved. The absorption of the result was then measured by an ELISA reader (600 nm).

[3] = system: polyphenol oxidase in the apple juice; assay: Polyphenol oxidase inhibition assay in apple juice; assay type: biochemical; conditions: 5 to 200 μM; absorbance at 420 nm within two hours
Description: Polyphenol Oxidase Inhibition Assay
Apples were purchased from local supermarkets. 100 g of apples were peeled, cored and sliced prior to juicing in a blender. The preparation was with 100 ml distilled water filtered through swab and collected by centrifugation 12,000 rpm for 10 min at 4° C. The apple juice obtained was immediately collected 200 μl in a 96 well microplate and mixed nicotinyl hydroxamic acid and N-methyl nicotinic acid hydroxamate iodide (5-200 μM).

[4] = system: melanoma cells (B16-F10); assay: Cell viability assay (MTT), melanoma cells; assay type: cell-based; conditions: 24 hours; for cell toxicity to melanoma cells (B16-F10): under effective concentration to inhibit melanin
Description: as §1

[5] = system: tyrosinase activity of B16-F10 cells; assay: Tyrosinase activity assay in situ; assay type: cell-based; conditions: three days
Description: Tyrosinase Activity Assay In Situ
B16-F10 cells (1×10^5) were placed on a 60 mm culture dish. After 12 hours, an adherent monolayer was formed on the bottom of the culture dish. After removal of the used culture medium, a fresh culture medium was added. A sample solution with various concentrations and/or 50 nM melanocytes stimulating hormone (MSH) were then added and cultivated at 37° C. for three days. After removal of the upper clean solution, the cells were washed two times using a PBS. After the cells were scraped away, protein was extracted and quantitated. One hundred μl of a phosphate buffer (250 mM, pH 6.5), 50 μl of a L-DOPA (10 mM) and 50 μl of a cell extract were sequentially added to a 96-well plate, uniformly mixed and reacted in a 37° C. culture box. The absorption of the result was then measured by an ELISA reader (475 nm).

[6] = system: tyrosinase; assay: Western blot of B16-F10 cells: tyrosinase; assay type: cell-based; conditions: B16-F10 cells treated 24 hours
Description: (§2) After using nicotinyl hydroxamic acid to treat B16-F10 cells for 24 hours, proteins are extracted and analyzed using the western blot method. The contents of tyrosinase and TRP-1 are reduced as the concentration of nicotinyl hydroxamic acid is increased.

[7] = system: MITF; assay: Western blot of B16-F10 cells: MITF; assay type: cell-based
Description: as §2
Microphthalmia-associated transcription factor (MITF) is a transcription factor controlling tyrosinase and TRP-1 expression in cells, with a helix-loop-helix leucine zipper structure, capable of regulation of melanogenesis and survival and proliferation of melanocytes.

[8] = system: TRP-1; assay: Western blot of B16-F10 cells: TRP-1; assay type: cell-based; conditions: B16-F10 cells treated 24 hours
Description: as §2

[9] = system: melanin content in B16-F10 cells; assay: Melanin content in B16-F10 cells with ERK and AKT pathway inhibitors; assay type: cell-based
Excerpt: The mechanism of inhibition of melanogenesis by nicotinyl hydroxamic acid in B16-F10 cells is further described as follows. ERK and AKT/[…] pathways participate in melanogenesis. PD98059, a MEK selective inhibitor, inhibits the activity of ERK (ERK is activated by MEK). LY294002, a phosphatidylinositol 3-kinase (PI3K) inhibitor, blocks the AKT/PKB pathway. The two inhibitors are used to determine the participation of nicotinyl hydroxamic acid in the ERK and AKT/PKA pathways. […] However, when nicotinyl hydroxamic acid is simultaneously added, the inhibition of melanin thereby is reduced by PD98059 and LY294002.

[10] = system: p-AKT; assay: Western blot of B16-F10 cells: p-AKT; assay type: cell-based
Excerpt: (§3) Additionally, according to the analytical results obtained using the western blot method, it was shown that the expression of p-ERK, p-MEK and p-AKT is increased as the concentration of nicotinyl hydroxamic acid is increased. Thus, in addition to inhibition of tyrosinase and adjustment of MITF, nicotinyl hydroxamic acid also reduces the melanin content in cells through ERK and AKT/PKB pathways.

[11] = system: p-ERK; assay: Western blot of B16-F10 cells: p-ERK; assay type: cell-based
Excerpt: as §3

[12] = system: TRP-2; assay: Western blot of B16-F10 cells: TRP-2; assay type: cell-based; conditions: B16-F10 cells treated 24 hours
[13] = system: p-MEK; assay: Western blot of B16-F10 cells: p-MEK; assay type: cell-based
Excerpt: as §3

[14] = concentration increased to 5 mM

| Compound | concentration added to achieve the same inhibition effect on melanin content ([1]; MSH added) | concentration added to achieve the same inhibition effect on melanin content ([1]; no MSH added) | viability of human melanocytes [2, 14] | inhibition of polyphenol oxidase in the apple juice [3] | inhibition of melanin of B16-F10 cells ([1]; MSH added) | inhibition of melanin of B16-F10 cells ([1]; MSH not added) | viability of B16-F10 melanoma cells [4, 14] | cell toxicity to melanoma cells (B16-F10) [4] | tyrosinase activity of B16-F10 cells as concentration was increased ([5]; MSH added (50 nM)) | tyrosinase activity of B16-F10 cells as concentration was increased ([5]; no MSH added) | content of tyrosinase as concentration is increased [6] | viability of human melanocytes ([2]; concentration increased to 1 mM) | content of MITF as concentration is increased [7] | content of TRP-1 as concentration is increased [8] | inhibition of melanin when PD98059 and LY294002 are simultaneously added ([9]; with PD98059 and LY294002) | expression of p-AKT as concentration is increased [10] | expression of p-ERK as concentration is increased [11] | content of TRP-2 versus concentration [12] | expression of p-MEK as concentration is increased [13] | effect on melanin content in cells ([9]; inhibitor added) |
| --- | --- | --- | --- | --- | --- | --- | --- | --- | --- | --- | --- | --- | --- | --- | --- | --- | --- | --- | --- | --- |
| O=c1cc(CO)occ1O [kojic acid, reference compound] | 1.5 mM | 1.5 mM |  |  |  |  |  |  |  |  |  |  |  |  |  |  |  |  |  |  |
| C[n+]1cccc(C(=O)NO)c1 [N-methyl nicotinic acid hydroxamate iodide] |  |  | still alive | effectively inhibited | achieved the same effects | achieved the same effects | still alive | low cell toxicity | decreased | decreased |  |  |  |  |  |  |  |  |  |  |
| O=C(NO)c1cccnc1 [nicotinyl hydroxamic acid] | 0.04 mM | 0.06 mM |  | effectively inhibited | effectively inhibited | effectively inhibited |  | low cell toxicity | decreased | decreased | reduced | still alive | reduced | reduced | reduced | increased | increased | irrelevant to the concentration | increased |  |
| COc1cccc(-c2cc(=O)c3ccccc3o2)c1N [PD98059, reference compound] |  |  |  |  |  |  |  |  |  |  |  |  |  |  |  |  |  |  |  | increases melanin content |
